{"source": "paper PMC5462101", "about": "(Future medicinal chemistry, 2015)", "key": {"[1]": {"assay": "Reducing ability in DPPH assay", "conditions": "compound 100 μM", "method": "Previous work has shown that pterins, their dihydro- and their tetrahydro-derivatives can each be antioxidants or pro-oxidants, depending on the particular conditions. In the present study, several assays were used to assess in vitro antioxidant activity in order to obtain representative information; each method involves the generation of a different radical.\nDetermination of reducing activity using 1,1-diphenyl-2-picrylhydrazyl radical (DPPH)\nTo a solution of DPPH in absolute ethanol was added an equal volume of the compound to be tested dissolved in DMSO (20 µL). From a stock solution (10 mM) was prepared a final solution of 100 µM for evaluation of the compounds. The absorbance at 517 nm was recorded after 20 and 60 min at room temperature (Table 2)."}, "[2]": {"assay": "Inhibition of linoleic acid peroxidation (AAPH)", "conditions": "linoleic acid peroxidation initiated by AAPH, 37 °C, pH 7.4", "excerpt": "Azo compounds that generate free radicals through spontaneous thermal decomposition are useful for in vitro studies of free radical production. The water-soluble AAPH has been extensively used as a clean and controllable source of thermally produced alkylperoxyl free radicals. […] Evidently, the presence of 6,7-dimethyl groups on the pteridine ring greatly enhances protection against lipid peroxidation; the nature of the alkyl group and ring size on the 2-substituent has some, but much less, effect. […] The role of lipophilicity (as assessed from calculated clogP values; Table 1) is not clear, but substituent bulk plays a significant role.\nInhibition of linoleic acid peroxidation\nProduction of conjugated diene hydroperoxide by oxidation of linoleic acid in an aqueous dispersion was monitored at 234 nm. 2,2’-Azobis(2-amidinopropane) dihydrochloride (AAPH) was used as a free radical initiator. This assay was used to follow oxidative changes and to determine the inhibition of the peroxidation of sodium linoleate by each tested compound. A dispersion of sodium linoleate (16 mM, 10 μL) was added to the UV cuvette containing phosphate buffer (0.05 M, 0.93 mL) at pH 7.4 and kept in a thermostat at 37 °C. The oxidation reaction was initiated at 37 °C under air by the addition of AAPH solution (40 mM, 50 μL). Oxidation was carried out in the presence of aliquots (10 μL) of the tested compound. In the assay without antioxidant, lipid oxidation was measured in the presence of DMSO (10 μL). The rate of oxidation at 37 °C was monitored by recording the increase in absorption at 234 nm caused by conjugated diene hydroperoxide formation (Table 2).\nIC50 determinations. OriginPro 8 was used to determine IC50 values from the sigmoidal line fitted to a graph of log[concentration] against the average percentage inhibition from two independent experiments, with at least 6 different concentrations. The SEM is the calculated standard error in the IC50 value of the fitted line."}, "[3]": {"assay": "Competition with DMSO for hydroxyl radicals", "conditions": "compound at 100 µM, Fe3+/ascorbic acid, DMSO 33 mM", "method": "Competition of the novel pteridine derivatives with dimethyl sulfoxide for hydroxyl radicals was measured. […] The majority of the derivatives were excellent scavengers of hydroxyl radicals with activity higher than the reference compound 6-hydroxy-2,5,7,8-tetramethylchroman-2-carboxylic acid (Trolox).\nCompetition of pteridine derivatives with DMSO for hydroxyl radicals\nHydroxyl radicals generated by the Fe^3+/ascorbic acid system were detected by determination of formaldehyde produced from the oxidation of DMSO, according to the procedure of Nash. The reaction mixture comprised ethylenediaminetetracetic acid (EDTA) (0.1 mM), Fe^3+ (167 μM), DMSO (33 mM) in phosphate buffer (50 mM, pH 7.4), ascorbic acid (10 mM) and the compound to be tested at 100 µM. After incubation at 37 °C for 30 min the mixture was quenched with aqueous trichloroacetic acid (17% w/v) (Table 2) and the percentage competition of the tested compounds with DMSO for hydroxyl radicals was determined (Table 2)."}, "[4]": {"test_system": "carrageenin-induced rat paw edema", "assay": "Inhibition of carrageenin-induced rat paw edema", "assay_type": "in vivo, Fisher 344 rats", "method": "The incipient pattern of this edema is characterized by the effects of histamine and 5-hydroxytryptamine. After 1 h, reduction of edema in the rat paw achieved by the pteridine 18f was appreciably greater than the reduction induced by the reference compound indomethacin, a nonselective COX-inhibitor and commonly used nonsteroidal anti-inflammatory drug. Thus, 18f and some related pteridines offer significant protection against reactive oxygen species produced in a model of colitis, probably on account of their properties as antioxidants and radical scavengers.\nFisher 344 rats (150-200 g) were housed in wire-mesh cages, given standard laboratory chow and tap water ad libitum and acclimatized for one week before experiments. Rats were randomly assigned to experimental groups. All in vivo experiments conform to the law for the protection of experimental animals (Republic of Greece) and are registered at the Veterinary Administration of the Republic of Greece in accordance with recognized guidelines on animal experimentation including Directive 2010/63/EU.\nInhibition of carrageenin-induced edema\nEdema was induced in the right hind paw of Fisher 344 rats (150-200 g) by intradermal injection of aqueous carrageenin (0.1 mL, 2%). Pregnant females were excluded from the study, but both sexes were used. Each group comprised 6-15 rats which were bred and housed under standard conditions and received a diet of commercial food pellets and water ad libitum during maintenance but were entirely fasted during the experiment period. Each compound (0.01 mmol/kg body weight) was suspended in water to which had been added a few drops of Tween 80 and then the mixture was ground in a mortar prior to being administered intraperitoneally and simultaneously with the carrageenin injection. Rats were euthanized 1 h after injection, and the difference between the weight of the injected and non-injected paws was calculated for each animal. The change in paw weight was compared with that in control animals (treated with water) and the inhibition of the edema was expressed as a percentage (Table 4). […]"}}, "note": "Several values for one entry are separate records, joined by “and”; a condition that tells them apart may be missing. Equal entries are not always repeated."}
{"molecule": "CN1CCN(c2nc(NCc3cccs3)c3nccnc3n2)CC1", "note": "[Compound 18f, 2-(4-methylpiperazin-1-yl)-N-(thiophen-2-ylmethyl)pteridin-4-amine]", "values": [{"measurement": "RA (%) 100μM 20 min", "setting": "[1]; 20 min", "value": 6, "unit": "%"}, {"measurement": "RA (%) 100μM 60 min", "setting": "[1]; 60 min", "value": 4, "unit": "%"}, {"measurement": "IC50", "setting": "[2]", "value": "100 ± 1.5", "unit": "µM"}, {"measurement": "Hydroxyl radicals scavenged (%)", "setting": "[3]", "value": 96, "unit": "%"}, {"measurement": "Greater reduction of edema in rat paw than indomethacin", "setting": "[4]; 0.01 mmol/kg, relative to indomethacin", "value": 60, "unit": "%"}, {"measurement": "Reduction of rat paw edema after 1 h (%)", "setting": "[4]; rat, 0.01 mmol/kg intraperitoneally, 1 h, mean of two experiments", "value": "41% and 41 ^† %"}]}
